Usually pIC50 stands for the negative decadic logarithm of the IC50, by convention in mol/L. Low readings indicate a large IC50, high ones a small IC50.

The structures appear in SMILES notation. pIC50: −log10 of the molar value.

The target in this experiment is T1, MCT1 (monocarboxylate transporter 1) (Rattus norvegicus, UniProt P53987).
T1 construct: gene Slc16a1
T1 sequence (P53987 1-494): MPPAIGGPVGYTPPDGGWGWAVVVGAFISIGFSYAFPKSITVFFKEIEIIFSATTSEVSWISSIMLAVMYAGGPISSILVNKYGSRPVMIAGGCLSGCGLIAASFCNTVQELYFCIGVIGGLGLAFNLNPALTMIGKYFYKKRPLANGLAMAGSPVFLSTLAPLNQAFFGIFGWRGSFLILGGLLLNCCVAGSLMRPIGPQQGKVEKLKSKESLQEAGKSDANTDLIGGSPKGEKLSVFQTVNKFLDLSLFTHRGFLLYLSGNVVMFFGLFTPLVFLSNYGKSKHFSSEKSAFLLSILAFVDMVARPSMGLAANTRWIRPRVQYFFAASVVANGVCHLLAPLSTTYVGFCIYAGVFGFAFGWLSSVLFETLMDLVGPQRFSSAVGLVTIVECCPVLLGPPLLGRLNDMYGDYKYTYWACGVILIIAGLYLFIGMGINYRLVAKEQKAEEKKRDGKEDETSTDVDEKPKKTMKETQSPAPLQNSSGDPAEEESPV
Put plainly: […]lactate uptake inhibition in RBE4 rat brain endothelial cells (only MCT1 isoform expressed). Format: cell-based.

`COc1cc(N(c2ccccc2)c2cccc(F)n2)ccc1/C=C(\C#N)C(=O)O` [compound 2, (E)-2-Cyano-3-(4-((6-fluoropyridin-2-yl)(phenyl)amino)-2-methoxyphenyl)acrylic Acid] showed a pIC50 of 6.56.

For `CCCN(c1ccc(/C=C(\C#N)C(=O)O)c(OC)c1)c1cccc(F)n1` [compound 1, (E)-2-Cyano-3-(4-((6-fluoropyridin-2-yl)(propyl)amino)-2-methoxyphenyl)acrylic Acid], the pIC50 is 6.93.

Source of the values: publication PMC7288138, “Development of Novel Analogs of the Monocarboxylate Transporter Ligand FACH and Biological Validation of One Potential Radiotracer for Positron Emission Tomography (PET) Imaging” (Molecules, 2020).
